According to PMC9841589, “Identification of 2-Aminoacyl-1,3,4-thiadiazoles as Prostaglandin E2 and Leukotriene Biosynthesis Inhibitors” (ACS Medicinal Chemistry Letters, 2022):

How the values were obtained:
mPGES-1 = target: T1, mPGES-1 (Homo sapiens, UniProt O14684); test: Cell-free mPGES-1 activity assay (PGE2 biosynthesis); type: biochemical; conditions: for remaining activity at 10 µM: percentage of control (100%), read-out: mPGES-1 residual activity at 10 μM (%); for IC50: n = 3, read-out: IC50 value ± SEM (mPGES-1, cell-free)
T1 construct: endogenous in cells; host or cells: A549 cells stimulated with IL-1β; microsomal fraction
T1 sequence (O14684 1-152): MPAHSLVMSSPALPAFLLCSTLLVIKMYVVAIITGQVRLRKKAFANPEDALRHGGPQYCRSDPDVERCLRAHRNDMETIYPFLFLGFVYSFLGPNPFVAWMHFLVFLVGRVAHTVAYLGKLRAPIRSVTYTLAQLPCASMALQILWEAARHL
Source text: (Table 1). […] From the structural point of view, the biological affinities of compounds 3 and 7 (Figure 2A and C) could be positively affected by the 2-bromobenzoyl substituent able to accommodate in a deep binding pocket on the mPGES-1 surface. This moiety interacts by van der Waals contacts with amino acids of the cytoplasmic part and establishes π-stacking with Phe44ChainC and His53ChainC hydrogen bonds with Ser127, and a halogen bond between the bromine atom and the side chain of Aps49ChainC. Furthermore, the 3-phenylphenol and 2-aminobiphenyl moieties of 3 and 7 (Figure 2A and C), respectively, are able to establish a peculiar π-stacking with Tyr130ChainA and a hydrogen bond with Gln134ChainA. […]
mM glutathione, and 250 mM sucrose) and the protein concentration was defined. Potassium phosphate buffer (0.1 M, pH = 7.4) plus glutathione (2.5 mM) was added to dilute microsomes, which were then seeded in a 96-well plate. […]
preincubated for 15 min on ice. MK886 (10 µM) and MD-52 (1 µM) were used as reference drugs.
The reactions started by adding 20 µM of PGH2, and 1 min later, 100 µl of a solution containing FeCl3 (40 mM), citric acid (80 mM), and 11β-PGE 2 (10 µM) were added for stopping the conversion of PGH2. After the extraction of PGE2 and 11β-PGE 2 (internal stardard) by solid-phase extraction, […]

[1] = test system: LPS-stimulated J774A.1 macrophages; test: Determination of IL-6 and PGE2 in murine macrophages; type: cell-based, mouse; conditions: J774A.1, LPS 10 μg/mL, compound 1 μM, 24 h
Procedure: LOX product analysis, using an MRM method with diagnostic ion fragments and identification, was performed as described previously.922 Determination of IL-6 and PGE2 in murine macrophages Mouse macrophage cell line (J774A.1, ATCC® TIB-67™) was cultured in DMEM supplemented with FBS (ATCC® 30-2020™) to a final concentration of 10%. Cells were seeded in petri culture (100 × 20 mm, Falcon ®) at a density of 5 × 10^5 cells per dish and allowed to grow for dishes 24 h. The medium was then replaced, and cells were treated with LPS (10 ) in the presence or absence of μg/ml compounds 3, 6, 7, 9 (1 µM). Following incubations of 24 h, cells were collected with a cell scraper and, after centrifugation at 14000 × g for 10 min at 4 °C, the supernatant was collected and stored at −80°C for ELISA analysis 1023.

Human recombinant 5-LO = target: T2, Human recombinant 5-LO (Homo sapiens, UniProt P09917); test: Cell-free 5-LO activity assay; type: biochemical; conditions: percentage of uninhibited control (100%), n = 3; n.i.: no inhibitory activity observed
T2 construct: made in house; host or cells: E. coli BL21 transformed with pT3-5-LO plasmid
T2 sequence (P09917 1-674): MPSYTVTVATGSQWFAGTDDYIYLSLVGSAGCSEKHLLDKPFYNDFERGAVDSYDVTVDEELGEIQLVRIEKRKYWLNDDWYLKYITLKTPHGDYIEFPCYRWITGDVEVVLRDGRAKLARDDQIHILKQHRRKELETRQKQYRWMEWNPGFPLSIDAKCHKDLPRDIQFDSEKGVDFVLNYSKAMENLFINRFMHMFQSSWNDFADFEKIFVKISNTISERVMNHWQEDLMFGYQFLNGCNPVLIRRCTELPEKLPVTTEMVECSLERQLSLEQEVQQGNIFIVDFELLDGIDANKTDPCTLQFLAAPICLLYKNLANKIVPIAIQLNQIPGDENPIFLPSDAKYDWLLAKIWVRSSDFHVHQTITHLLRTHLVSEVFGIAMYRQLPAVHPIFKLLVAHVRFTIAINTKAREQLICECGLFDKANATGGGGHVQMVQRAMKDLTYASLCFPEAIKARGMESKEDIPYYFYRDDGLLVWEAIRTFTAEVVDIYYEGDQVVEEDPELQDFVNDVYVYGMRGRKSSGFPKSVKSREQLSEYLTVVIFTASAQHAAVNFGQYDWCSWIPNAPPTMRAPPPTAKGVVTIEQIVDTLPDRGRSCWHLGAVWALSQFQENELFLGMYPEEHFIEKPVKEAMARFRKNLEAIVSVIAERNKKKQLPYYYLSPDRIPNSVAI
Procedure: mM glutathione, and 250 mM sucrose) and the protein concentration was defined. Potassium phosphate buffer (0.1 M, pH = 7.4) plus glutathione (2.5 mM) was added to dilute microsomes, which were then seeded in a 96-well plate. Test compounds 1-9 (10 µM) or DMSO (1%) were added and preincubated for 15 min on ice. MK886 (10 µM) and MD-52 (1 µM) were used as reference drugs.
The reactions started by adding 20 µM of PGH2, and 1 min later, 100 µl of a solution containing FeCl3 (40 mM), citric acid (80 mM), and 11β-PGE 2 (10 µM) were added for stopping the conversion of PGH2. After the extraction of PGE2 and 11β-PGE 2 (internal stardard) by solid-phase extraction, the quantity of product formation (PGE2) was determined by RP-HPLC.114
Cell-free 5-LO activity assay
Human recombinant 5-LO was expressed in E.coli BL21 transformed with pT3-5-LO plasmid at 30 °C overnight 15.2 A lysis buffer (50 mM triethanolamine, pH = 8.0, 5 mM EDTA, 1 mM phenylmethanesulfonyl fluoride, 60 µg/mL soybean trypsin inhibitor, 2 mM dithiothreitol and lysozyme) was added. […] Finally, a solid-phase extraction then was performed using C18 RP-columns (100 mg, UCT, Bristol, PA, USA) and RP-HPLC was used to quantify 5-LOX products.3 16 The 5-LO inhibitor zileuton (3 µM) was used as positive control. […]

Nc1ccccc1-c1ccc(-c2nnc(NC(=O)c3ccccc3Br)s2)cc1 [compound 7]
remaining activity at 10 µM (mPGES-1): 16.7%
IC50 (mPGES-1): 0.15 µM
PGE2 production [1]: displayed a similar activity only in terms of PGE2 modulation

Nc1ccccc1-c1ccc(-c2nnc(NC(=O)c3c(Cl)ccnc3Cl)s2)cc1 [compound 9]
remaining activity at 10 µM (mPGES-1): 20.9%
IC50 (mPGES-1): 1.7 ± 0.3 µM
5-LO residual activity (%) (Human recombinant 5-LO): n.i. (75.9) %

Cc1cc(C(=O)Nc2nnc(-c3ccc(-c4ccccc4N)cc3)s2)cc(Cl)n1 [compound 6]
remaining activity at 10 µM (mPGES-1): 31.7%
IC50 (mPGES-1): 3.1 ± 0.6 µM

O=C(Nc1nnc(-c2ccc(-c3cccc(O)c3)cc2)s1)c1ccccc1Br [compound 3]
remaining activity at 10 µM (mPGES-1): 8.4%
IC50 (mPGES-1): 0.2 µM
5-LO residual activity (%) (Human recombinant 5-LO): n.i. (125) %
IL-6 production [1]: able to modulate
PGE2 production [1]: able to modulate
